Data on two molecules can be found in patent US20160237502A1, “MARKERS FOR LIPID METABOLISM” (priority 2014, published 2016).

“Also recorded” adds a separate entry of the source.

The test system of one test is SKN-1. Put plainly: SKN-1 transcriptional activity reporter gst-4p::GFP activation in worms. It counts as in vivo, C. elegans.
Another test relates to alh-6 mutants. As to conditions: NAC treatment, previous study; cited from earlier work.
The next test relates to alh-6 mutant worms. The test is described as follows: Fat content during fasting measured by Nile Red staining. It counts as in vivo, C. elegans. As to conditions: NAC-treated alh-6 mutant worms. The procedure:
For starvation, synchronized L1 animals were added to nematode growth medium (NGM) plates seeded with indicated bacteria. After 2 days at 20° C., L4 animals were collected, washed with M9 buffer at least three times and then subjected to fasting in M9 liquid with shaking for indicated time before collection for further analysis. Starvation survival assay was performed as previous described (Artyukhin et al., Sci. Rep.; 3, 2777; 2013). […] After 24 h, synchronized L1 animals were resuspended in M9 at a concentration of two worms per microliter. Starvation culture was mixed by constant rocking. Every 2 days, a portion of animals was recovered on normal OP50-seeded NGM plates. Animals that resumed development were considered to be surviving.
Nile Red staining was performed as previously described (Pino, et al., J. Vis. Exp. 73; 2013). Briefly, animals of indicated genotypes were collected, fixed in 40% isopropanol at room temperature for 3 min and stained in 3 μg ml-1 Nile Red working solution in dark for 2 h. Worms were then washed with M9 for at least 30 min, mounted on slides and imaged under the green fluorescent protein channel of microscope Zeiss Axio Imager with Zen software package. Fluorescent density was measured using ImageJ software. Approximately ten animals from each experiment (n) were used to calculate the fluorescent density.

For the molecule arsenite, the SKN-1 reporter activation entry in the test with SKN-1 (in vivo) is “SKN-1 reporter activation induced”.
As to `CC(=O)N[C@@H](CS)C(=O)O` [NAC, N-acetylcysteine], the “SKN-1 reporter activation induced by exposure to arsenite” value with SKN-1 (gst-4p::GFP reporter, arsenite as inducer of oxidative stress, NAC treatment) is “blocked the SKN-1 reporter activation; also recorded: inhibits arsenite (AS) induced SKN-1 reporter activation”. For the same molecule, the “SKN-1 activation observed in fasted alh-6 mutants” value in the test on SKN-1 (gst-4p::GFP reporter, fasted alh-6 mutants, NAC treatment) is recorded as “no effect; also recorded: not activation when alh-6 mutants are fasted”. Moreover, the “shortened lifespan of alh-6 mutants” value in the test with alh-6 mutants was “completely abrogated the shortened lifespan”. In addition, in the test with alh-6 mutant worms, the “fat mobilization in response to fasting” value is “still exhibited accelerated fat mobilization”.
